{
  "source": "paper PMC3369921",
  "about": "“Ecto-5′-Nucleotidase: A Candidate Virulence Factor in Streptococcus sanguinis Experimental Endocarditis” (PLoS ONE, 2012)",
  "target": "T1, ecto-5′-nucleotidase (Nt5e) (Streptococcus sanguinis, UniProt I3RY26)",
  "T1 construct": "native enzyme on whole cells of S. sanguinis strain 133-79",
  "T1 sequence (I3RY26 entry or part of it)": "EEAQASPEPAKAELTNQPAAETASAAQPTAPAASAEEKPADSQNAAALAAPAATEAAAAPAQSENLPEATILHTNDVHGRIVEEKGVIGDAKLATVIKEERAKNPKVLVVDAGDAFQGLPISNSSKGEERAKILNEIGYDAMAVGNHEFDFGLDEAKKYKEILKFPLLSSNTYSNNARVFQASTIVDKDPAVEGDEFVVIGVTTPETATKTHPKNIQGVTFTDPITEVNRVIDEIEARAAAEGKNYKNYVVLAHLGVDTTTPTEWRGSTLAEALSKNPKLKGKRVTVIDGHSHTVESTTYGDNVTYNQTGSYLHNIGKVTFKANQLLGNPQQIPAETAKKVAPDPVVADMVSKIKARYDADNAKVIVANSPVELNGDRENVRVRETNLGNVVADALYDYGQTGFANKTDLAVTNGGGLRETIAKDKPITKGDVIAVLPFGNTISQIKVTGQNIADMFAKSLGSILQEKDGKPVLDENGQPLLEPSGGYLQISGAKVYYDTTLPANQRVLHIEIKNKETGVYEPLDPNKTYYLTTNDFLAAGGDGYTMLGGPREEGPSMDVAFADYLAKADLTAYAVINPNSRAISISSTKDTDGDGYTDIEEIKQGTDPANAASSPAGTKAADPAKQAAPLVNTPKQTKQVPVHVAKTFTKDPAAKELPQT",
  "experiment": "whole-cell AMPase activity (phosphate release) dose-inhibition and Michaelis-Menten analysis",
  "assay_type": "cell-based",
  "data": [
    {"smiles": "Nc1ncnc2c1ncn2[C@@H]1O[C@H](COP(=O)(O)CP(=O)(O)O)[C@@H](O)[C@H]1O", "note": "[APCP]", "values": [
      {"measurement": "IC50", "result": "8.8 ± 3.8", "unit": "µM"}
    ]}
  ]
}
